This note sets out measurements from DBAASP.

One may read the MIC as the least concentration at which growth counts as inhibited. Low readings indicate greater potency, high ones weaker potency.

≈ marks a conversion by molar mass, not a printed value. A value given as a limit tells only on which side of the number the result lay.

Among the test systems are Candida glabrata 090902; Candida krusei ATCC 6258; Escherichia coli; Staphylococcus aureus; Escherichia coli ECO2; Escherichia coli ECO1; Acinetobacter baumannii; Pseudomonas aeruginosa.
Holding throughout (assay): ≥ marks a high value that may be exact or a test limit, other limits are often not marked, values filed in µg/mL are converted to µM
Test [1] has as its system Nocardia asteroides 201118.
The subject of test [2] is Klebsiella pneumoniae 08040724.
In test [3] the test system is Enterococcus faecalis 981.
Test [4] deals with Enterococcus faecium 091299.
Test [5] concerns Escherichia coli ATCC 25922.
Test [6] deals with Psychrobacter faecalis X29.
Test [7] has as its system Staphylococcus aureus ATCC 25923.
Test [8] has as its system Enterobacter cloacae CGMCC 1.57.
In test [9] the test system is Enterococcus faecalis ATCC 29212.
Test [10] relates to Salmonella enterica subsp. enterica serovar Typhimurium C77-31.
In test [11] the test system is Bacillus subtilis CMCC 63501.
Test [12] relates to Staphylococcus epidermidis ATCC 12228.
Test [13] concerns Salmonella enterica subsp. enterica serovar Pullorum C79-13.
In test [14] the test system is Staphylococcus aureus ATCC 29213.
The subject of test [15] is Pseudomonas aeruginosa ATCC 27853.
Test [16] has as its system Cryptococcus neoformans ATCC 90012.
In test [17] the test system is Candida parapsilosis ATCC 22019.
Test [18] concerns Candida albicans ATCC 90028.
Test [19] deals with Cronobacter sakazakii ATCC BAA-894.
Test [20] has as its system Klebsiella pneumoniae NCIMB 13218.
Test [21] concerns Staphylococcus aureus RN4220.
For test [22], the system named is Salmonella enterica subsp. enterica serovar Typhimurium LT2.
In test [23] the test system is Staphylococcus aureus Newman.
Test [24] deals with Pseudomonas fluorescens NCIMB 9046.
The subject of test [25] is Cronobacter muytjensii ATCC 51329.
Test [26] relates to Staphylococcus aureus SA113.
In test [27] the test system is Cronobacter sakazakii DSM 4485.
Test [28] concerns Escherichia coli NCIMB 11843.
The subject of test [29] is Cronobacter sakazakii DPC 6440.
For test [30], the system named is Staphylococcus aureus RF122.
Test [31] concerns Staphylococcus aureus NCTC 8325-4.
Test [32] deals with Salmonella enterica serovar Typhimurium.
Test [33] concerns Pseudomonas aeruginosa PAER10.
Test [34] relates to Acinetobacter baumannii ABA2.
Test [35] concerns Pseudomonas aeruginosa PAER1.
Test [36] relates to Pseudomonas aeruginosa PAER7.
The test system of test [37] is Staphylococcus aureus SAU2.
Test [38] relates to Porphyromonas gingivalis ATCC 33277.
The test system of test [39] is Acinetobacter baumannii ABA1.
Test [40] concerns Staphylococcus aureus S5375.
Test [41] relates to Pseudomonas aeruginosa PAER4.
Test [42] deals with Pseudomonas aeruginosa PAO1.
For test [43], the system named is Staphylococcus aureus SAU7.
The subject of test [44] is Staphylococcus aureus SAU5.

`CC[C@H](C)[C@@H]1NC(=O)[C@H](CCCCN)NC(=O)[C@@H](NC(=O)[C@@H](NC(=O)[C@@H](NC(=O)[C@H](CCCCN)NC(=O)[C@@H]2CCCN2C(=O)[C@H](CC(C)C)NC(=O)[C@H](Cc2ccccc2)NC(=O)[C@H](CC(N)=O)NC(=O)[C@H](C)NC(=O)[C@H](C)NC(=O)[C@H](CC(C)C)NC(=O)CNC(=O)[C@H](C)NC(=O)[C@H](CC(C)C)NC(=O)[C@H](CCSC)NC(=O)[C@@H]2CCCN2C(=O)[C@H](CC(C)C)NC(=O)[C@@H](N)Cc2ccccc2)[C@@H](C)CC)[C@@H](C)CC)CSSC[C@@H](C(=O)O)NC(=O)[C@H](CCCCN)NC(=O)[C@H](CCCCN)NC(=O)[C@H]([C@@H](C)O)NC1=O` [FLPMLAGLAANFLPKIICKITKKC]: the minimum inhibitory concentration (MIC) in test [1] was 3.1 µM (≈ 8.16 µg/mL); in [2], at least 100 µM; in [3], 6.3 µM (≈ 16.6 µg/mL); in test [4], at least 50 µM; in the test on Candida glabrata 090902 it was 6.3 µM (≈ 16.6 µg/mL); in [5] it was 100 µM (≈ 263 µg/mL). In addition, the MIC in test [6] is 12.5 µM (≈ 32.9 µg/mL); in [7] it was 6.3 µM (≈ 16.6 µg/mL); in test [8] it was at least 100 µM.
With `NC(=O)[C@H](Cc1ccccc1)NC(=O)[C@H](CCCN=C(N)N)NC(=O)[C@H](CS)NC(=O)[C@H](Cc1ccccc1)NC(=O)[C@H](CCCN=C(N)N)NC(=O)[C@H](CCCN=C(N)N)NC(=O)[C@H](CCCN=C(N)N)NC(=O)[C@H](CS)NC(=O)[C@H](CCCN=C(N)N)NC(=O)[C@@H](N)Cc1ccccc1` [FRCRRRFCRF], the minimal inhibitory concentration (MIC) was 32 µM (≈ 46.3 µg/mL) in test [9]; at least 32 µM in test [10]; 4 µM (≈ 5.78 µg/mL) in test [11]; 16 µM (≈ 23.1 µg/mL) in test [12]; 4 µM (≈ 5.78 µg/mL) in test [5]; 16 µM (≈ 23.1 µg/mL) in test [13]. Moreover, the minimal inhibitory concentration (MIC) in test [14] is 32 µM (≈ 46.3 µg/mL); in test [15], over 128 µM.
For the compound `CC[C@H](C)[C@H](NC(=O)[C@H](Cc1ccccc1)NC(=O)[C@H](CC(N)=O)NC(=O)[C@H](CCCCN)NC(=O)[C@H](C)NC(=O)[C@@H](NC(=O)[C@H](CC(N)=O)NC(=O)[C@H](Cc1ccccc1)NC(=O)[C@H](C)NC(=O)[C@H](C)NC(=O)[C@H](CCCCN)NC(=O)CNC(=O)[C@@H](NC(=O)[C@H](CCCCN)NC(=O)[C@H](CCCCN)NC(=O)[C@H](C)NC(=O)[C@@H](NC(=O)[C@H](CC(=O)O)NC(=O)[C@H](CC(C)C)NC(=O)[C@H](Cc1c[nH]c2ccccc12)NC(=O)CN)C(C)C)[C@@H](C)CC)C(C)C)C(N)=O` [GWLDVAKKIGKAAFNVAKNFI], the minimum inhibitory concentration (MIC) in test [16] came out at 8 µM (≈ 18.3 µg/mL); in the test with Candida krusei ATCC 6258 it was 8 µM (≈ 18.3 µg/mL); in test [5] it was 4 µM (≈ 9.16 µg/mL); in test [17], 4 µM (≈ 9.16 µg/mL); in test [7], 1 µM (≈ 2.29 µg/mL); in test [18], 8 µM (≈ 18.3 µg/mL). In addition, the MIC in [15] stood at 8 µM (≈ 18.3 µg/mL).
For the compound `CC(C)C[C@H](NC(=O)[C@H](CCCN=C(N)N)NC(=O)[C@H](C)NC(=O)[C@H](CC(N)=O)NC(=O)[C@H](CCC(=O)O)NC(=O)[C@H](CC(N)=O)NC(=O)[C@H](CC(C)C)NC(=O)[C@@H](N)C(C)C)C(=O)O` [VLNENARL], the MIC in test [19], in test [20], in test [21], in test [22], in test [23] and in test [24] was at least 1250 µM in each case. The MIC is at least 1250 µM in test [25]; at least 625 µM in test [26]; at least 1250 µM in test [27]; at least 1250 µM in test [28]; at least 1250 µM in test [29]; at least 1250 µM in test [30]. Also, the minimal inhibitory concentration (MIC) in [31] was at least 1250 µM.
With `CC[C@H](C)[C@H](NC(=O)[C@H](CCCN=C(N)N)NC(=O)[C@H](Cc1c[nH]c2ccccc12)NC(=O)[C@H](CCC(N)=O)NC(=O)[C@@H](N)C(C)C)C(=O)N[C@@H](CCCN=C(N)N)C(=O)N[C@H](C(=O)N[C@@H](C)C(=O)N[C@H](C(=O)N[C@H](C(=O)N[C@@H](CCCN=C(N)N)C(=O)N[C@@H](CCCCN)C(=O)O)[C@@H](C)CC)C(C)C)C(C)C` [VQWRIRVAVIRK], the MIC against Escherichia coli turned out to be 42 µM (≈ 64 µg/mL); in test [32] it was 5.25 µM (≈ 8 µg/mL); in test [33] it was 2.62 µM (≈ 4 µg/mL); against Staphylococcus aureus it was 14.8 µM (≈ 22.6 µg/mL); in test [34], 7.42 µM (≈ 11.3 µg/mL); in test [35] it was 3.71 µM (≈ 5.66 µg/mL). In addition, the minimal inhibitory concentration (MIC) stood at 3.71 µM (≈ 5.66 µg/mL) in the test on Escherichia coli ECO2; 21 µM (≈ 32 µg/mL) in test [36]; 21 µM (≈ 32 µg/mL) in test [37]; 10.5 µM (≈ 16 µg/mL) in test [5]; 5.25 µM (≈ 8 µg/mL) in test [38]; 3.71 µM (≈ 5.66 µg/mL) in the test on Escherichia coli ECO1. Moreover, the minimal inhibitory concentration (MIC) in [39] came out at 5.25 µM (≈ 8 µg/mL); in test [40], 14.8 µM (≈ 22.6 µg/mL); in [7] it was 10.5 µM (≈ 16 µg/mL); in test [41] it was 10.5 µM (≈ 16 µg/mL); in test [42], 10.5 µM (≈ 16 µg/mL); in the test on Acinetobacter baumannii, 10.5 µM (≈ 16 µg/mL). Further, the minimum inhibitory concentration (MIC) in test [43] was found to be 21 µM (≈ 32 µg/mL); in test [44] it was 21 µM (≈ 32 µg/mL); in the test with Pseudomonas aeruginosa, 10.5 µM (≈ 16 µg/mL).
